Here are results for three molecules from patent US10668039B2, “Methods for treatment of adenoid cystic carcinoma” (THE CHILDREN'S MEDICAL CENTER CORPORATION, priority 2016, dated 2020).

Experiment [1] relates to c-myb. Nature of the experiment: qPCR of sorted c-myb:GFP zebrafish embryo cells. The settings on record: sorted c-myb:GFP cells from 72 hpf embryos, 1 μM, 6 hours. The experiment is classed as cell-based. On the procedure:
RA dose response experiments were plated similarly in LDF medium with the appropriate RA concentration. Sorted c-myb:GFP+ cells were collected from 72 hpf transgenic embryos that were homogenized: embryos were finely chopped and dissociated using Liberase (Roche), cell suspensions were filtered, and 58,000 GFP+ live cells were collected using a FACS Aria cell sorter (BD Biosciences). Cells were cultured for 6 hours in LDF medium, and then collected for qPCR.
(§1) Quantitative PCR: Total RNA from cells was extracted using Qiagen RNeasy Mini Kit, and random primed cDNA was generated (Invitrogen, SuperScript III First-Strand Synthesis System). The SsoFast EvaGreen (Biorad) method was used to quantify cDNAs of interest, which are represented as the fold change in transcript level. The amount of cDNA starting material for each sample was normalized in relation to species-specific β-actin expression for zebrafish samples, and both gapdh and β-actin expression for human samples. The primer sequences used were zebrafish myb: forward, 5′-[…]-3′ (SEQ ID No:1), reverse, 5′-[…]-3′ (SEQ ID No:2); zebrafish β-actin: forward, 5′-[…]-3′ (SEQ ID No:3), reverse, 5′-[…]-3′ (SEQ ID No:4); human myb: forward, 5′-[…]-3′ (SEQ ID No:5), reverse, 5′-[…]-3′ (SEQ ID No:6); human gapdh: forward, 5′-[…]-3′ (SEQ ID No:7), reverse, 5′-[…]-3′ (SEQ ID No:8); human β-actin: forward, 5′-[…]-3′ (SEQ ID No:9), reverse, 5′-[…]-3′ (SEQ ID No:10).
Zebrafish quantitative PCR analysis: Stage-matched 72 hpf c-myb:GFP transgenic embryos were finely chopped and dissociated using Liberase (Roche). GFP+ cells were collected using a FACS Aria cell sorter (BD Biosciences). Sorted cells were resuspended in zebrafish blastomere media and plated with 1 μM retinoic acid agonists for 6 hours. Cells were then collected and RNA was isolated using the RNeasy Micro Plus Kit (Qiagen) as per the manufacturer's instructions. cDNA was synthesized using the SuperScript III Kit (Life Technologies). Quantitative PCR was performed in triplicate on a BioRad iQ5 real-time PCR machine using Ssofast EvaGreen Supermix (BioRad). Samples were normalized to β-actin gene. Zebrafish primers used (forward and reverse respectively): actin, 5′-[…]-3′ (SEQ ID No:3) and 5′-[…] -3′ (SEQ ID No:4); c-myb, 5′-[…]-3′ (SEQ ID No:1) and 5′-[…]-3′ (SEQ ID No:2); mpx, 5′-[…]-3′ (SEQ ID No:11) and 5′-[…]-3′ (SEQ ID No:12); GFP, 5′-[…]-3′ (SEQ ID No:13) and 5′-[…]-3′ (SEQ ID No:14).

The test system of experiment [2] is c-myb. Description: U937 time course qPCR of c-myb. The experiment is classed as cell-based, human. The settings on record: for myb levels in U937 by qPCR: 1 μM, 6, 24 and 48 hours. The procedure:
Cell culture: U937 cells were grown in RPMI 1640 (Life Technologies), 10% heat inactivated FBS, and 1% Penicillin-Streptomycin (Invitrogen). CellTiter-Glo Luminescent Cell Viability Assay (Promega) was performed as per manufacturer's instructions. Cell viability was assessed at day 2.
as §1
U937 time course quantitative PCR analysis: U937 cells were plated with 1 μM retinoic acid agonists for the duration indicated. Cells were then collected and RNA was isolated using the RNeasy Plus Mini Kit (Qiagen) as per the manufacturer's instructions. Further processing was done as described in the section above. Samples were normalized to β-actin gene. Human primers used (forward and reverse respectively): actin, 5′-[…]-3′ (SEQ ID No:9) and 5′-[…]-3′ (SEQ ID No:10); c-myb, 5′-[…]-3′ (SEQ ID No:5) and 5′-[…]-3′ (SEQ ID No:6).
(Real-time PCR tracks product formation cycle by cycle.)

In another experiment the test system is ACCx6. Description: ACC xenotransplantation trial, ACCx6. It is filed as in vivo, nude mice. The settings on record: oral 0.2 mL flat dose: ATRA 4 mg/mL, isotretinoin 30 mg/mL, fenretinide 40 mg/mL. The procedure: (§2) Xenograft experiments: To generate ACC xenografts, 1×10^6 viable ACC cells were injected into the flank of female nude (Foxn1nu) mice for in vivo drug testing of ACCx6, ACCx9, and ACCx11 lines. Once tumors were visible, the mice were randomized to receive vehicle control or drug until reaching a […] tumor volume of 1,000 mm3. The mice in each group were treated with an oral flat dose five times weekly (po qdx5) for four cycles (two days off between cycles). The exact dosing was determined based on an initial MTD tolerability study and published literature reports. Five mice per group were treated for ACCx6 and ACCx9, and four mice per group were treated for ACCx11 (five mice in the control ACCx11 group), and the tumor volumes were quantified. Mice were treated with a flat dose of 0.2 mL orally of: 30 mg/mL isotretinoin; 40 mg/mL fenretinide; 4 mg/mL ATRA for ACCx6 and ACCx11 or 3 mg/mL ATRA for ACCx9. Mouse procedures used in this study were approved by the IACUC at South Texas Accelerated Research Therapeutics (San Antonio, Tex.).
(§3) Primagraft experiments: For in vivo drug testing, ACC tumor fragments from host animals were implanted subcutaneously into the flank of nude mice (CRL: ATH/NU). Once tumors reached 125-250 mm3, mice were randomized to receive vehicle or drug diluted in 10:90 DMSO:10% hydroxypropyl-beta-cyclodextrin orally until controls reached a tumor volume endpoint of 1-2 cm3 (4-9 mice per group: x5M1 and x6, 4 treated vs. 9 vehicle controls; x9, 4 treated vs. 5 vehicle controls; x11, 5 treated vs. 8 vehicle controls). Mice were treated with ATRA (ACC x6 and x11: 4 mg/mL, 0.2 mL flat dose; ACC×9: 3 mg/mL, 0.2 mL flat dose) or isotretinoin (30 mg/mL, 0.2 mL flat dose). Tumor growth was monitored and mice weighed twice weekly and studies ended when final group reached tumor volume endpoint. No statistical methods were employed to determine the sample size, and no blinding of investigators was performed. […]

Another experiment deals with ACCx9. Description: ACC xenotransplantation trial, ACCx9. It is filed as in vivo, nude mice. The settings on record: oral 0.2 mL flat dose: ATRA 3 mg/mL, isotretinoin 30 mg/mL, fenretinide 40 mg/mL. The procedure: as §2, §3

Each structure is given as a SMILES string. Entries after “also recorded” stand apart in the source; their conditions may differ.

Regarding `CC1=C(/C=C/C(C)=C/C=C/C(C)=C/C(=O)Nc2ccc(O)cc2)C(C)(C)CCC1` [Fenretinide, retinoic acid p-hydroxyanilide], in the experiment on c-myb [1], the “endogenous myb levels by qPCR” value is “significantly downregulate”. Besides, the entries for the “myb levels in U937 by qPCR” value in the experiment with c-myb [2] and in the experiment with c-myb [2] (listed as RA p-hydroxyanilide) were “reduction” and “significantly downregulate”, respectively. The “tumor growth inhibition ACCx6” value with ACCx6 turned out to be 60%. In the experiment with ACCx9, the “tumor growth inhibition ACCx9” value is reported as 57%.
`CC(C=CC1=C(C)CCCC1(C)C)=CC=C/C(C)=C/C(=O)O` [ATRA, (E)-3,7-dimethyl-9-(2,6,6-trimethyl-1-cyclo-hexen-1-yl)-2,4,6,8-nonatetraenoic acid]: the “endogenous myb levels by qPCR” value in the experiment with c-myb [1] is on record as “significantly downregulate”. In the experiment with c-myb [2], the “myb levels in U937 by qPCR” value is listed as “significantly downregulate; also recorded: reduction”. For the same molecule, the “time to downregulation of c-myb expression” value in the experiment with c-myb [2] (U937 cells, 1 μM ATRA) was no more than 3 h. Moreover, the “tumor growth inhibition ACCx6” value in the experiment with ACCx6 turned out to be 81%. The “tumor growth inhibition ACCx9” value in the experiment with ACCx9 is given as 78%.
For `CC1=C(/C=C/C(C)=C/C=C/C(C)=C\C(=O)O)C(C)(C)CCC1` [Isotretinoin, 13-cis-retinoic acid], in the experiment on c-myb [1], the “endogenous myb levels by qPCR” value is on record as “significantly downregulate”. Further, the “myb levels in U937 by qPCR” value in the experiment with c-myb [2] was “significantly downregulate; also recorded: reduction”. For the same molecule, the “tumor growth inhibition ACCx6” value in the experiment on ACCx6 is reported as 69%. The “tumor growth inhibition ACCx9” value in the experiment on ACCx9 was determined as 95%.
